Where “and” joins values, the source holds several entries; their conditions need not be identical. Identical values can stand only once.
What was measured:
[1] = Solubility of oleoyl-estrone in binary oil blends, 200 mg/g at room temperature; format: physicochemical
Description: These four types of oils were then evaluated in binary blend systems with an oleoyl-estrone concentration of 200 mg/g at room temperature for 24 hours and 96 hours.

[2] = Compatibility/stability of oleoyl-estrone in oil systems (appearance/color, potency, related substances); format: physicochemical
Description: The compatibility of oleoyl-estrone in various oil systems was also assessed. The respective stability of oleoyl-estrone in various oils was assessed following storage at (A) 25° C./60% and relative humidity (RH), (B) 40° C./75% RH, (C) 50° C. and (D) 60° C. in canola oil, safflower oil, Captex and a 2:1 Captex: Labrafil mixture. The stability test methods include appearance/color, potency, and related substances (e.g. impurities or degradant in the oleoyl-estrone and oil mixture).

[3] = 200 mg/g in Canola:Labrafil (2:1) at RT (about 22° C.)
[4] = 200 mg/g in Captex 300 EP:Labrafil (2:1) at RT (about 22° C.)
[5] = 200 mg/g in Safflower:Labrafil (2:1) at RT (about 22° C.)
[6] = in 2:1 CAPTEX:LABRAFIL, One Week 25° C./60% RH
[7] = in 2:1 CAPTEX:LABRAFIL, One Week 40° C./75% RH
[8] = in 2:1 CAPTEX:LABRAFIL, One Week 50° C.
[9] = in 2:1 CAPTEX:LABRAFIL, One Week 60° C.
[10] = in 2:1 CAPTEX:LABRAFIL, Time Zero
[11] = in 2:1 CAPTEX:LABRAFIL, Two Weeks 25° C./60% RH
[12] = in 2:1 CAPTEX:LABRAFIL, Two Weeks 40° C./75% RH
[13] = in CANOLA, One Week 25° C./60% RH
[14] = in CANOLA, One Week 40° C./75% RH
[15] = in CANOLA, Three Weeks 25° C./60% RH
[16] = in CANOLA, Three Weeks 40° C./75% RH
[17] = in CANOLA, Two Weeks 25° C./60% RH
[18] = in CANOLA, Two Weeks 40° C./75% RH
[19] = in CAPTEX, One Week 25° C./60% RH
[20] = in CAPTEX, One Week 40° C./75% RH
[21] = in CAPTEX, Three Weeks 25° C./60% RH
[22] = in CAPTEX, Three Weeks 40° C./75% RH

Notes (phase separation) [1, 3]: No phase separation
Solubility After 24 hr [1, 3]: Dissolved
Solubility After 96 hr [1, 3]: Dissolved
Notes (phase separation) [1, 4]: No phase separation
Solubility After 24 hr [1, 4]: Dissolved
Solubility After 96 hr [1, 4]: Dissolved
Notes (phase separation) [1, 5]: No phase separation
Solubility After 24 hr [1, 5]: NOT Dissolved
Solubility After 96 hr [1, 5]: Dissolved
Solubility After 24 hr ([1]; 200 mg/g in Soybean:Labrafil (2:1) at RT (about 22° C.)): NOT Dissolved
Mean Purity Assay [2, 6]: 101.9%
Purity Assay [2, 6]: 100.4% and 103.3%
Mean Purity Assay [2, 7]: 104.4%
Purity Assay [2, 7]: 102.2% and 106.6%
Mean Purity Assay [2, 8]: 106.8%
Purity Assay [2, 8]: 106.6% and 107.0%
Mean Purity Assay [2, 9]: 98.2%
Purity Assay [2, 9]: 98.4% and 97.9%
Mean Purity Assay ([2]; in 2:1 CAPTEX:LABRAFIL, Three Weeks 25° C./60% RH): 102.1%
Mean Purity Assay ([2]; in 2:1 CAPTEX:LABRAFIL, Three Weeks 40° C./75% RH): 99.7%
Mean Purity Assay ([2]; in 2:1 CAPTEX:LABRAFIL, Three Weeks 50° C.): 103.8%
Mean Purity Assay ([2]; in 2:1 CAPTEX:LABRAFIL, Three Weeks 60° C.): 102.1%
Mean Purity Assay [2, 10]: 104.8%
Purity Assay [2, 10]: 105.1% and 104.9% and 103.6% and 105.2%
Mean Purity Assay [2, 11]: 102.9%
Purity Assay [2, 11]: 101.3% and 104.4%
Mean Purity Assay [2, 12]: 104.5%
Purity Assay [2, 12]: 107.3% and 101.7%
Mean Purity Assay ([2]; in 2:1 CAPTEX:LABRAFIL, Two Weeks 50° C.): 104.0%
Mean Purity Assay ([2]; in 2:1 CAPTEX:LABRAFIL, Two Weeks 60° C.): 106.2%
Mean Purity Assay [2, 13]: 96.5%
Purity Assay [2, 13]: 96.3% and 96.7%
Mean Purity Assay [2, 14]: 95.8%
Purity Assay [2, 14]: 95.2% and 96.4%
Mean Purity Assay ([2]; in CANOLA, One Week 50° C.): 99.8%
Purity Assay ([2]; in CANOLA, One Week 50° C.): 96.3% and 103.3%
Mean Purity Assay ([2]; in CANOLA, One Week 60° C.): 98.2%
Purity Assay ([2]; in CANOLA, One Week 60° C.): 97.8% and 98.5%
Mean Purity Assay [2, 15]: 96.5%
Purity Assay [2, 15]: 95.3% and 97.7%
Mean Purity Assay [2, 16]: 98.4%
Purity Assay [2, 16]: 94.6% and 102.2%
Mean Purity Assay ([2]; in CANOLA, Three Weeks 50° C.): 99.4%
Purity Assay ([2]; in CANOLA, Three Weeks 50° C.): 100.2% and 98.5%
Mean Purity Assay ([2]; in CANOLA, Three Weeks 60° C.): 99.8%
Purity Assay ([2]; in CANOLA, Three Weeks 60° C.): 100.4% and 99.1%
Mean Purity Assay ([2]; in CANOLA, Time Zero): 98.1%
Purity Assay ([2]; in CANOLA, Time Zero): 97.5% and 98.0% and 97.8% and 98.9%
Mean Purity Assay [2, 17]: 96.4%
Purity Assay [2, 17]: 92.5% and 100.3%
Mean Purity Assay [2, 18]: 99.0%
Purity Assay [2, 18]: 98.2% and 99.8%
Mean Purity Assay ([2]; in CANOLA, Two Weeks 50° C.): 98.2%
Purity Assay ([2]; in CANOLA, Two Weeks 50° C.): 100.2% and 96.2%
Mean Purity Assay ([2]; in CANOLA, Two Weeks 60° C.): 97.3%
Purity Assay ([2]; in CANOLA, Two Weeks 60° C.): 96.7% and 97.9%
Mean Purity Assay [2, 19]: 105.2%
Purity Assay [2, 19]: 102.0% and 108.3%
Mean Purity Assay [2, 20]: 103.6%
Purity Assay [2, 20]: 105.2% and 101.9%
Mean Purity Assay ([2]; in CAPTEX, One Week 50° C.): 101.2%
Purity Assay ([2]; in CAPTEX, One Week 50° C.): 99.5% and 102.9%
Mean Purity Assay ([2]; in CAPTEX, One Week 60° C.): 101.9%
Purity Assay ([2]; in CAPTEX, One Week 60° C.): 101.5% and 102.3%
Mean Purity Assay [2, 21]: 99.5%
Purity Assay [2, 21]: 100.4% and 98.5%
Mean Purity Assay [2, 22]: 99.1%
Purity Assay [2, 22]: 99.4% and 98.8%
Mean Purity Assay ([2]; in CAPTEX, Three Weeks 50° C.): 106.5%
Purity Assay ([2]; in CAPTEX, Three Weeks 50° C.): 107.1% and 105.9%
Mean Purity Assay ([2]; in CAPTEX, Three Weeks 60° C.): 103.0%
Purity Assay ([2]; in CAPTEX, Three Weeks 60° C.): 100.7% and 105.3%
Mean Purity Assay ([2]; in CAPTEX, Time Zero): 105.4%
Structure (SMILES): CCCCCCCC/C=C\CCCCCCCC(=O)Oc1ccc2c(c1)CC[C@@H]1[C@@H]2CC[C@]2(C)C(=O)CC[C@@H]12 [oleoyl-estrone, [3(Z)]-3-[(1-oxo-9-octadecenyl)oxy]-estra-1,3,5(10)-trien-17-one]

— patent US20080261936A1, “METHODS OF REDUCING THE BODY WEIGHT OF A SUBJECT BY ADMINISTERING A FATTY ACID ESTER OF AN ESTROGEN OR ESTROGEN DERIVATIVE IN AN OIL AND COMPOSITIONS CONTAINING THE SAME” (Manhattan Pharmaceuticals, Inc., priority 2006, published 2008)
